“And” between values parts separate entries of the source, which are not always exact repeats. Identical values can stand only once.

Data set [1] deals with IMR-90 lung fibroblast control cell line. The data set is described as follows: MTT cellular viability assay, IMR90. Particulars: IMR90 (fibroblast, non-cancer), 72 hours, ± standard deviation. It counts as cell-based. How it is done: (§1) Cell lines were obtained from American Type Culture Collection (ATCC, Manassas, VA). […] Caco-2 (ATCC: HTB-37) colorectal cancer was grown in EMEM with 20% FBS and 1% penicillin/streptomycin. All cell lines were incubated at 37°C in 5% CO2 with passaging every 4–7 days. Cell culture media and supplements were obtained from ATCC, Atlanta Biologicals (Flowery Branch, GA), Mediatech (Tewksbury, MA), Fisher Scientific (Waltham, MA), Gibco (Gaithersburg, MD) and Sigma-Aldrich.
(§2) The MTT (3-(4,5-dimethylthiazol-2-yl)-2,5-diphenyltetrazolium bromide) cellular viability assay was performed in all three cancer cell lines and the non-cancer cell line. Following a protocol adapted from, cells were seeded at 5,000 cells per well in 96-well plates and incubated at 37°C in 5% CO2 in F-12K Medium or EMEM with FBS supplementation and 1% penicillin/streptomycin for 24 hours. Then, wells were treated in replicates of six according to a concentration series (500, 50, 5, 0.5, 0.05 μM) of specific platinum complexes for 72 hours. A negative control (media only), positive control (Triton X-100) and series of blanks were simultaneously performed. The MTT assay was run for 2 hours, then well contents were rapidly evacuated out and all wells were treated with MTT solubilization solution [10% Triton X-100 in acidic (0.1N HCl) isopropanol] for 15 minutes before the plates were read using a BioTek Synergy HT microplate plate reader (570 nm and 690 nm absorbance wavelengths). Reagents, cell culture media and supplements were obtained from ATCC, Atlanta Biologicals, Mediatech, Fisher Scientific, Gibco and Sigma-Aldrich.
(§3) GraphPad Prism v6 (La Jolla, CA) was used for all statistical analysis. Nuclear fraction platinum uptake as a total percent of combined nuclear and cytosolic uptake was analyzed using a one-way ANOVA (Brown-Forsyth test; p ≤ 0.05). IC50 values were calculated in Prism using the sigmoidal, 4PL, x is log(concentration) analysis feature or were calculated from Prism derived values using the equation y = mx + b. MTT assay standard deviation values were calculated using ED50plus v1.0 online software. AEP threshold data were analyzed by two-way ANOVA (Dunnett’s multiple comparisons test; p ≤ 0.05) and hair cell quantification data by two-way ANOVA (Tukey’s multiple comparisons test; p ≤ 0.05). AEP temporary threshold shifts (TTS) were calculated by subtracting the mean vehicle threshold for each frequency from each treatment threshold. TTS data were averaged across frequencies for each treatment and were analyzed by one-way ANOVA (Tukey’s multiple comparisons test; p ≤ 0.05).
For orientation: Tetrazolium assays rely on reduction of a dye to a coloured formazan, in cell work by metabolically active cells.

Another data set has as its system 5'-GMP. The data set is described as follows: Kinetic 5'-GMP assay (1H NMR, rate of reaction of platinum complex with 5'-GMP). Type of data set: biochemical. Particulars: D2O, pH 7, 25°C; for Rate constant for the reaction of 5'-GMP with the platinum(II) complex: excess platinum, fitted first order in each reactant. How it is done: The reaction of each platinum compound with 5'-GMP (Acros) was monitored using ^1H NMR spectroscopy to observe the disappearance of the H8 signal of the unreacted 5'-GMP at ≈8 ppm and the appearance of a product signal ≈0.5–1.0 ppm downfield of the unreacted 5'-GMP. The reaction was conducted with excess platinum compound present in each case. A 10 mM solution of 5'-GMP and a 10–20 mM solution of the platinum(II) compound were prepared separately in D2O. The pH (uncorrected for the effects of deuterium) of each solution was adjusted to 7, and the samples were equilibrated to 25°C in a water bath. Aliquots of the two solutions were combined and placed in an NMR tube; typically, the final concentrations of platinum was 5–18 mM and the concentration of 5'-GMP was 1 mM (except for the [Pt(dien)Cl]^+ reaction, where it was 0.5 mM). Samples were maintained at 25°C throughout the NMR experiment. The H8 resonances were integrated and the data was fitted to an equation that was first order in each reactant using DynaFit to determine rate constants. At least two runs were conducted for each platinum compound using fresh samples.

Data set [2] has as its system zebrafish hearing thresholds. Briefly: Auditory evoked potential (AEP) testing in zebrafish inner ear model. It counts as in vivo, Danio rerio. Particulars: 25 mg/kg i.p.; for mean (± S.E.) temporary threshold shift (TTS), averaged across frequencies: 48 hours, vehicle threshold subtracted; for AEP hearing threshold, significance of pairwise comparison against cisplatin / AEP hearing threshold, significance of pairwise comparison against vehicle: 48 h. How it is done:
Zebrafish (Danio rerio) were purchased from a commercial supplier (Segrest Farms, Gibsonton, FL) and maintained in the animal facility of Western Kentucky University according to a protocol approved by the Institutional Animal Care and Use Committee. All zebrafish used in this study were a mix of male and female adult animals at least 6 months of age and were maintained according to standard methods.
After injection, fish were returned to holding tanks for either 24 or 48 hours and then subjected to hearing tests followed by hair cell quantification analysis.
Auditory evoked potential (AEP) testing was performed on individual fish according to standard protocols. […] After harness placement was complete, three 27 gauge stainless steel electrodes (Rochester Electro-Medical, Inc., Lutz, FL) were inserted approximately 2 mm subdermally to record AEPs. A reference electrode was inserted into the medial dorsal surface of the head, a recording electrode directly over the brainstem and a ground electrode in the tail musculature. Sound stimuli (tone pips) were presented to each fish at 8 frequencies (100, 250, 400, 600, 800, 1000, 1500 and 3000 Hz) and AEP waveforms were collected using a TDT System III physiology apparatus (Tucker-Davis Technologies Inc., Alachua, FL) running SigGen and BioSig software. Auditory stimuli were passed through a P1000 power amplifier (Hafler, Port Coquitlam, BC) and presented with a University Sound UW-30 underwater speaker (Electro-Voice, Fairport, NY). Sound pressure levels were confirmed using a Type 10CT hydrophone (G.R.A.S., Holte, Denmark) placed adjacent to the mesh harness. Auditory thresholds were determined in 5 dB increments by visual inspection of AEP waveforms.
as §3

Data set [3] relates to U-138 MG (HTB-16) glioblastoma cancer cell line. The data set is described as follows: MTT cellular viability assay, HTB16. The note with it: HTB16 (glioma), 72 hours, ± standard deviation. Type of data set: cell-based. How it is done:
as §1, §2, §3

One may read the IC50 as the concentration that inhibits the measured activity by half. For the molecule `[Cl][Pt-2]12[NH2+]CC[NH+]1CC[NH2+]2` (stereo not drawn) [[Pt(dien)Cl]^+, Pt(diethylenetriamine)Cl], the IC50 in data set [1] was 56 ± 6.1 µM; in data set [3] it was 209 ± 42.3 µM. Besides, the “Relative rate (rate constant divided by the rate constant for [Pt(dien)Cl]^+)” value in the data set with 5'-GMP came out at 1. Besides, the “Rate constant for the reaction of 5'-GMP with the platinum(II) complex” value in the data set with 5'-GMP is 3.9 ± 0.1 x 10^−1 M^-1s^-1 and 3.9 (+/- 0.1) x 10^−1 M^-1s^-1. In data set [2], the “mean (± S.E.) temporary threshold shift (TTS), averaged across frequencies” value stood at 12.0 ± 3.0 dB. The “AEP hearing threshold, significance of pairwise comparison against cisplatin” value was “ns (ns, p > 0.05)” in data set [2] (100 Hz); “ns (ns, p > 0.05)” in data set [2] (250 Hz); “ns (ns, p > 0.05)” in data set [2] (400 Hz); “ns (ns, p > 0.05)” in data set [2] (600 Hz); “ns (ns, p > 0.05)” in data set [2] (800 Hz); “ns (ns, p > 0.05)” in data set [2] (1000 Hz). Besides, the “AEP hearing threshold, significance of pairwise comparison against cisplatin” value in data set [2] (1500 Hz) is reported as “ns (ns, p > 0.05)”; in data set [2] (3000 Hz) it was “ns (ns, p > 0.05)”. In addition, the “AEP hearing threshold, significance of pairwise comparison against vehicle” value in data set [2] (100 Hz) is given as “* (* p ≤ 0.05)”; in data set [2] (250 Hz), “ns (ns, p > 0.05)”; in data set [2] (400 Hz), “**** (**** p ≤ 0.0001)”; in data set [2] (600 Hz), “**** (**** p ≤ 0.0001)”; in data set [2] (800 Hz) it was “**** (**** p ≤ 0.0001)”; in data set [2] (1000 Hz), “**** (**** p ≤ 0.0001)”. In addition, the “AEP hearing threshold, significance of pairwise comparison against vehicle” value in data set [2] (1500 Hz) was “ns (ns, p > 0.05)”; in data set [2] (3000 Hz) it was “* (* p ≤ 0.05)”.

phenanthriplatin: the IC50 in data set [1] turned out to be 1.24 ± 0.48 µM; in data set [3] it was 2.41 ± 0.11 µM. Further, the “Relative rate (rate constant divided by the rate constant for [Pt(dien)Cl]^+)” value in the data set with 5'-GMP amounted to 0.041. Also, the “fold reduction in the rate relative to [Pt(dien)Cl]^+” value with 5'-GMP is given as ~ 25 fold. The entries for the “Rate constant for the reaction of 5'-GMP with the platinum(II) complex” value in the data set with 5'-GMP and in the data set on 5'-GMP (listed as phenanthriplatin) were 1.63 (+/- .02) x 10^−2 M^-1s^-1 and 1.63 ± 0.02 x 10^-2 M^-1s^-1, respectively. The “mean (± S.E.) temporary threshold shift (TTS), averaged across frequencies” value in data set [2] stood at 13.3 ± 2.9 dB; in data set [2] (listed as phenanthriplatin), 13 dB. Also, the “AEP hearing threshold, significance of pairwise comparison against cisplatin” value in data set [2] (100 Hz) was “* (* p ≤ 0.05)”; in data set [2] (250 Hz), “ns (ns, p > 0.05)”; in data set [2] (400 Hz), “ns (ns, p > 0.05)”; in data set [2] (600 Hz), “ns (ns, p > 0.05)”; in data set [2] (800 Hz), “* (* p ≤ 0.05)”; in data set [2] (1000 Hz), “* (* p ≤ 0.05)”. Moreover, the “AEP hearing threshold, significance of pairwise comparison against cisplatin” value was “ns (ns, p > 0.05)” in data set [2] (1500 Hz) and “** (** p ≤ 0.01)” in data set [2] (3000 Hz). Further, the “AEP hearing threshold, significance of pairwise comparison against vehicle” value in data set [2] (100 Hz) is reported as “*** (*** p ≤ 0.001)”; in data set [2] (250 Hz), “ns (ns, p > 0.05)”; in data set [2] (400 Hz), “*** (*** p ≤ 0.001)”; in data set [2] (600 Hz), “** (** p ≤ 0.01)”; in data set [2] (800 Hz), “**** (**** p ≤ 0.0001)”; in data set [2] (1000 Hz), “**** (**** p ≤ 0.0001)”. For the same molecule, the “AEP hearing threshold, significance of pairwise comparison against vehicle” value in data set [2] (1500 Hz) is recorded as “ns (ns, p > 0.05)”; in data set [2] (3000 Hz) it was “**** (**** p ≤ 0.0001)”.

The record behind these values is article PMC5841658, “Anti-cancer characteristics and ototoxicity of platinum(II) amine complexes with only one leaving ligand” (PLoS ONE, 2018).
